Patent US12239652B2, “Composition for preventing or treating muscular diseases, or for improving muscular functions, containing ganglioside” (INDUSTRY-ACADEMIC COOPERATION FOUNDATION, YONSEI UNIVERSITY, priority 2018, dated 2025)

Legend:
mTOR = mTOR Sandwich ELISA in L6 myotubes (activity for myogenic induction); format: cell-based; conditions: 12-h culture, *P<0.05
Protocol: The mTOR protein is known to induce the activation of proteins involved in muscle protein synthesis and an increase in muscle mass in the PI3K/Akt signaling pathway in muscle cells when phosphorylated and activated. Thus, the activity of mTOR was confirmed using an mTOR Sandwich ELISA kit (Cell Signaling Technology, Beverly, MA, USA) to determine the activity of ganglioside GM3 for myogenic induction.
L6 myoblasts (ATCC; Manassas, VA, USA) were seeded with Dulbecco's modified Eagle's media (DMEM; Hyclone) supplemented with 10% fetal bovine serum (FBS; Hyclone, Logan, UT, USA) in a 6-well plate at a density of 1×10^5 cells/well, followed by culture for 24 h. The media in the wells were replaced with DMEM (Hyclone) supplemented with 2% horse serum (HS; Hyclone), followed by culture for additional 6 days to differentiate the L6 cells into myotubes. Then, cells were treated with ganglioside GM3 (Cayman, Ann Arbor, MI, USA) at a concentration of 1 μM or 5 μM. After 12-h culture, cells were lysed by treatment with a cell lysis buffer. Proteins in the cell lysate were quantified by the Bradford method (Bio-Rad Laboratories Inc., Hercules, CA, USA) and the concentration of the cell lysate was then adjusted to 1 mg/mL. The cell lysate was plated in microwells bound with anti-mTOR antibody (50 μL/well) and cultured at 37° C. for 2 h. Cells were washed a total of 4 times with a washing buffer, treated with a detection antibody, and cultured at 37° C. for 1 h, rewashed a total of 4 times with a washing buffer, added with a horseradish peroxidase (HRP)-conjugated secondary antibody, and cultured at 37° C. for 30 min. Finally, after washing a total of 4 times with a washing buffer, TMB substrate was added to each well. After culture at 37° C. for 10 min, a stop solution was added to stop the TMB reaction. 2 min later, absorbance was measured at a wavelength of 450 nm to determine the level of mTOR in the myotubes treated with ganglioside GM3.
The procedure of Example 1 was repeated except that cells were treated with ganglioside GM1 (Cayman) at a concentration of 15 μM or 25 μM to examine the activity of the ganglioside for myogenic induction.
The procedure of Example 1 was repeated except that cells were treated with ganglioside GD1a (Cayman) at a concentration of 1 μM or 3 μM to examine the activity of the ganglioside for myogenic induction.
The procedure of Example 1 was repeated except that cells were treated with each of gangliosides GT1b and GQ1b (Cayman) at a concentration of 1 μM to examine the activity of the ganglioside for myogenic induction.

p-mTOR = experiment: Western blot of mRNA translation biomarkers in TNF-α-treated L6 myotubes: p-mTOR; format: cell-based; conditions: 50 ng/mL TNF-α
Protocol: (§1) L6 myoblasts (ATCC) were seeded with DMEM (Hyclone) supplemented with 10% FBS (Hyclone) in a 6-well plate at a density of 1×10^5 cells/well, followed by culture. When the cultured cells reached a confluency of ˜80-85% per well, the media in the wells were replaced with DMEM (Hyclone) supplemented with 2% HS (Hyclone), followed by culture for additional 6 days to induce differentiation into myotubes. During culture for 6 days, the culture media were changed once every other day a total of 3 times. […] A group treated with 0.01% DMSO instead of the sample was used as a control. Cells were lysed with NP-40 buffer (ELPIS-Biotech, Daej eon, Korea) with a protease inhibitor cocktail (Sigma-Aldrich, St. Louis, MO, USA) and centrifuged at 13,000 rpm for 10 min. The cell lysate was obtained from the supernatant. The concentration of proteins in the supernatant was determined by the Bradford method (Bio-Rad Laboratories Inc.). Proteins at a certain concentration were heated for 5 min and separated by SDS-PAGE electrophoresis. The separated proteins were transferred to nitrocellulose membranes. Then, p-mTOR, mTOR, p-p70S6K, p70S6K, p-4EBP1, 4EBP1, and alpha-tubulin primary antibodies (Cell signaling technology, Beverly, MA, USA) were diluted at a ratio of 1:1000 with 2.5% bovine serum albumin (BSA; Bioworld, Dubin, OH, USA) and incubated with the proteins transferred to the nitrocellulose membranes at room temperature for 20 h. After incubation of the primary antibodies, the nitrocellulose membranes were washed 3 times with Tris-buffer saline Tween 20 (TBST) for 10 min. After washing, an anti-rabbit secondary antibody (Bethyl Laboratories, Inc., Montgomery, TA, USA) conjugated with horseradish peroxidase recognizing the primary antibodies was diluted 1:5000 with 2.5% BSA (Bioworld) and incubated with the nitrocellulose membranes at room temperature for 2 h. […]
(§2) Protein bands detected through antibody binding were developed using an ECL western blot detection reagent (Amersham, Tokyo, Japan) and visualized using a G;BOX EF imaging system (Syngene, Cambridge, UK). […]

p-p70S6K = experiment: Western blot of mRNA translation biomarkers in TNF-α-treated L6 myotubes: p-p70S6K; format: cell-based; conditions: 50 ng/mL TNF-α
Protocol: as §1, §2

p-4EBP1 = experiment: Western blot of mRNA translation biomarkers in TNF-α-treated L6 myotubes: p-4EBP1; format: cell-based; conditions: 50 ng/mL TNF-α
Protocol: as §1, §2

atrogin-1 = experiment: RT-PCR of muscle degrading protein mRNA in TNF-α-treated L6 myotubes: atrogin-1; format: cell-based; conditions: 50 ng/mL TNF-α
Protocol: (§3) L6 myoblasts (ATCC) were seeded with DMEM (Hyclone) supplemented with 10% FBS (Hyclone) in a 6-well plate at a density of 1×10^5 cells/well, followed by culture. When the cultured cells reached a confluency of ˜80-85% per well, the media in the wells were replaced with DMEM (Hyclone) supplemented with 2% HS (Hyclone), followed by culture for additional 6 days to induce differentiation into myotubes. During culture for 6 days, the culture media were changed once every other day a total of 3 times. The differentiation-induced cells were harvested and the cell media were replaced with DMEM supplemented with 50 ng/mL TNF-α (PeproTech) in which ganglioside GM3 (Cayman) was dissolved at a concentration of 1 μM or 5 μM. A group treated with 0.01% DMSO instead of the sample was used as a control. Total RNA was isolated from cells using TRIzol reagent (Takara, Kyoto, Japan). The isolated total RNA was quantified using NanoDrop 1000 (Thermo Fisher Scientific Inc., Waltham, MA, USA). 16 μL of the RNA was synthesized into cDNA using Reverse Transcriptase Premix (ELPIS-Biotech) and a PCR system (Gene Amp PCR System 2700; Applied Biosystems, Foster City, CA, USA) at 42° C. for 55 min and 70° C. for 15 min. 3 μL of the synthesized cDNA, the specific primers shown in Table 1 (Bioneer, Daej eon, Korea), and PCR premix (ELPIS-Biotech) were mixed and PCR was repeated 30 times at 95° C. for 30 sec, 60° C. for 1 min, and 72° C. for 1 min. After PCR amplification, cDNA was separated by electrophoresis on a 1.5% agarose gel and the cDNA bands were visualized using a G;BOX EF imaging system (Syngene).
(§4) The procedure of Example 8 was repeated except that cells were treated with ganglioside GM1 (Cayman) at a concentration of 15 μM or 25 μM to investigate the mRNA transcription and expression levels of atrogin-1 and MuRF1 as muscle degrading proteins.
(§5) The procedure of Example 8 was repeated except that cells were treated with ganglioside GD1a (Cayman) at a concentration of 1 μM or 3 μM to investigate the mRNA transcription and expression levels of atrogin-1 and MuRF1 as muscle protein degradation-related enzymes.
(§6) The procedure of Example 8 was repeated except that cells were treated with each of gangliosides GT1b and GQ1b (Cayman) at a concentration of 1 μM to investigate the mRNA transcription and expression levels of atrogin-1 and MuRF1 as muscle protein degradation-related enzymes.

MuRF1 = experiment: RT-PCR of muscle degrading protein mRNA in TNF-α-treated L6 myotubes: MuRF1; format: cell-based; conditions: 50 ng/mL TNF-α
Protocol: as §3, §4, §5, §6

Wistar rats = experiment: Muscle mass (soleus weight) in TNF-α-induced muscular atrophy animal model; format: in vivo; conditions: 50 mg/kg body weight once a day for 8 weeks; for Average soleus weight: right soleus, control 416.0 ± 19.57
Protocol: Wistar rats, aged five weeks, were acclimatized for one week and supplied with 100 ng/g of TNF-α for 2 weeks to induce muscular atrophy. The animals were randomly divided into a total of 5 groups, 8 animals per group, depending on their weight. Each of gangliosides GM3, GM1, GD1a, GT1b, and GQ1b (each 50 mg/kg body weight) as experimental groups was suspended in 0.25% carboxymethylcellulose. The suspension was administered at a given time once a day for 8 weeks. A group administered the same amounts of 0.25% carboxymethyl cellulose and TNF-α ingested by each experimental group was used as a control.
After administration of the sample for 8 weeks, the right soleus was dissected and its weight was measured with a microbalance (Mettler PE160, USA).

Structure (SMILES)	activity of mTOR in L6 muscle cells (mTOR; 1 μM or 3 μM)	expression level of phosphorylated p-mTOR in L6 muscle cells (p-mTOR; 1 μM or 3 μM)	expression level of phosphorylated p-P70S6K in L6 muscle cells (p-p70S6K; 1 μM or 3 μM)	expression level of phosphorylated p-4EBP1 in L6 muscle cells (p-4EBP1; 1 μM or 3 μM)	mRNA expression level of atrogin-1 in L6 muscle cells (atrogin-1; 1 μM or 3 μM)	mRNA expression level of MuRF1 in L6 muscle cells (MuRF1; 1 μM or 3 μM)	increase of muscle (soleus) weight compared to the control group (Wistar rats)	Average soleus weight (Wistar rats)	activity of mTOR in L6 muscle cells (mTOR; 1 μM)	mRNA expression level of atrogin-1 in L6 muscle cells (atrogin-1; 1 μM)	mRNA expression level of MuRF1 in L6 muscle cells (MuRF1; 1 μM)	activity of mTOR in L6 muscle cells (mTOR; 1 μM or 5 μM)	expression level of phosphorylated p-mTOR in L6 muscle cells (p-mTOR; 1 μM or 5 μM)	expression level of phosphorylated p-P70S6K in L6 muscle cells (p-p70S6K; 1 μM or 5 μM)	expression level of phosphorylated p-4EBP1 in L6 muscle cells (p-4EBP1; 1 μM or 5 μM)	mRNA expression level of atrogin-1 in L6 muscle cells (atrogin-1; 1 μM or 5 μM)	mRNA expression level of MuRF1 in L6 muscle cells (MuRF1; 1 μM or 5 μM)
CCCCCCCCCCCCC/C=C/[C@@H](O)[C@H](CO[C@@H]1OC(CO)[C@@H](O[C@@H]2OC(CO)[C@H](O[C@H]3OC(CO)[C@H](O)C(O[C@@H]4OC(CO)[C@H](O[C@]5(C(=O)O)CC(O)[C@@H](NC(C)=O)C([C@@H](O)[C@H](O)CO)O5)C(O)C4O)C3NC(C)=O)C(O[C@]3(C(=O)O)CC(O)[C@@H](NC(C)=O)C([C@@H](O)[C@H](O)CO)O3)C2O)C(O)C1O)NC(=O)CCCCCCCCCCCCCCCCC (some centres unmarked) [Ganglioside GD1a, ganglioside GD1a]	significantly increased	increased	increased	increased	reduced	reduced	17.79%	490.0 ± 22.8 mg									
CCCCCCCCCCCCC/C=C/[C@@H](O)[C@H](CO[C@@H]1OC(CO)[C@@H](O[C@@H]2OC(CO)[C@H](O[C@H]3OC(CO)[C@H](O)C(OC4OC(CO)C(O)[C@H](O[C@]5(C(=O)O)CC(O)[C@@H](NC(C)=O)C([C@@H](O)[C@H](O)CO)O5)C4CO)C3NC(C)=O)C(O[C@]3(C(=O)O)CC(O)[C@@H](NC(C)=O)C([C@@H](O)[C@H](CO)O[C@]4(C(=O)O)CC(O)[C@@H](NC(C)=O)C([C@@H](O)[C@H](O)CO)O4)O3)C2O)C(O)C1O)NC(=O)CCCCCCCCCCCCCCCCC (some centres unmarked) [Ganglioside GT1b, ganglioside GT1b]							14.42%	476.0 ± 24.1 mg	significantly increased	reduced	reduced						
CCCCCCCCCCCCC/C=C/[C@@H](O)[C@H](CO[C@@H]1OC(CO)[C@@H](O[C@@H]2OC(CO)[C@@H](O)C(O[C@]3(C(=O)O)CC(O)[C@@H](NC(C)=O)C([C@@H](O)[C@H](O)CO)O3)C2O)C(O)C1O)NC(=O)CCCCCCCCCCCCCCCCC (some centres unmarked) [Ganglioside GM3, ganglioside GM3]							23.56%	514.0 ± 18.4 mg				significantly increased	increased	increased	increased	reduced	reduced
CCCCCCCCCCCCC/C=C/[C@@H](O)[C@H](CO[C@@H]1OC(CO)[C@@H](O[C@@H]2OC(CO)[C@H](O[C@H]3OC(CO)[C@H](O)C(O[C@@H]4OC(CO)[C@@H](O)C(O[C@]5(C(=O)O)CC(O)[C@@H](NC(C)=O)C([C@@H](O)[C@H](CO)O[C@]6(C(=O)O)CC(O)[C@@H](NC(C)=O)C([C@@H](O)[C@H](O)CO)O6)O5)C4O)C3NC(C)=O)C(O[C@]3(C(=O)O)CC(O)[C@@H](NC(C)=O)C([C@@H](O)[C@H](CO)O[C@]4(C(=O)O)CC(O)[C@@H](NC(C)=O)C([C@@H](O)[C@H](O)CO)O4)O3)C2O)C(O)C1O)NC(=O)CCCCCCCCCCCCCCCCC (some centres unmarked) [Ganglioside GQ1b, ganglioside GQ1b]							16.37%	484.1 ± 25.4 mg	significantly increased	reduced	reduced						
